From US20250276983A1, “COMPOUNDS AND METHODS FOR MODULATING HER2” (IAMBIC THERAPEUTICS, INC., priority 2022, published 2025)

Columns and labels:
[1] = tested on: BaF3_HER2WT cells; experiment: Cell growth inhibition assay, BaF3_HER2WT; assay type: cell-based; settings: 72 h, 3 days treatment, CellTiterGlo 2.0, read-out: HER2 WT IC50 (nM), cell growth inhibition
[2] = tested on: BaF3_EGFRWT cells; experiment: Cell growth inhibition assay, BaF3_EGFRWT; assay type: cell-based; settings: 72 h, 80 ng/mL recombinant human EGF, 3 days treatment, CellTiterGlo 2.0, read-out: EGFR WT IC50 (nM), cell growth inhibition
[3] = tested on: BaF3_HER2YVMA cells; experiment: Cell growth inhibition assay, BaF3_HER2YVMA; assay type: cell-based; settings: 72 h, BaF3_HER2YVMA cells, 3 days treatment, CellTiterGlo 2.0; read-out: HER2-YVMA IC50 (nM), cell growth inhibition
[4] = target: wtERBB2 (Homo sapiens (Human), UniProt P04626); experiment: HotSpot radiometric kinase activity assay, wtERBB2; assay type: biochemical; settings: 30 nM wtERBB2, 10 μM 33P-ATP, 20 min preincubation, 2 hours, read-out: HER2 WT IC50
Sequence of wtERBB2 (P04626 23-1255): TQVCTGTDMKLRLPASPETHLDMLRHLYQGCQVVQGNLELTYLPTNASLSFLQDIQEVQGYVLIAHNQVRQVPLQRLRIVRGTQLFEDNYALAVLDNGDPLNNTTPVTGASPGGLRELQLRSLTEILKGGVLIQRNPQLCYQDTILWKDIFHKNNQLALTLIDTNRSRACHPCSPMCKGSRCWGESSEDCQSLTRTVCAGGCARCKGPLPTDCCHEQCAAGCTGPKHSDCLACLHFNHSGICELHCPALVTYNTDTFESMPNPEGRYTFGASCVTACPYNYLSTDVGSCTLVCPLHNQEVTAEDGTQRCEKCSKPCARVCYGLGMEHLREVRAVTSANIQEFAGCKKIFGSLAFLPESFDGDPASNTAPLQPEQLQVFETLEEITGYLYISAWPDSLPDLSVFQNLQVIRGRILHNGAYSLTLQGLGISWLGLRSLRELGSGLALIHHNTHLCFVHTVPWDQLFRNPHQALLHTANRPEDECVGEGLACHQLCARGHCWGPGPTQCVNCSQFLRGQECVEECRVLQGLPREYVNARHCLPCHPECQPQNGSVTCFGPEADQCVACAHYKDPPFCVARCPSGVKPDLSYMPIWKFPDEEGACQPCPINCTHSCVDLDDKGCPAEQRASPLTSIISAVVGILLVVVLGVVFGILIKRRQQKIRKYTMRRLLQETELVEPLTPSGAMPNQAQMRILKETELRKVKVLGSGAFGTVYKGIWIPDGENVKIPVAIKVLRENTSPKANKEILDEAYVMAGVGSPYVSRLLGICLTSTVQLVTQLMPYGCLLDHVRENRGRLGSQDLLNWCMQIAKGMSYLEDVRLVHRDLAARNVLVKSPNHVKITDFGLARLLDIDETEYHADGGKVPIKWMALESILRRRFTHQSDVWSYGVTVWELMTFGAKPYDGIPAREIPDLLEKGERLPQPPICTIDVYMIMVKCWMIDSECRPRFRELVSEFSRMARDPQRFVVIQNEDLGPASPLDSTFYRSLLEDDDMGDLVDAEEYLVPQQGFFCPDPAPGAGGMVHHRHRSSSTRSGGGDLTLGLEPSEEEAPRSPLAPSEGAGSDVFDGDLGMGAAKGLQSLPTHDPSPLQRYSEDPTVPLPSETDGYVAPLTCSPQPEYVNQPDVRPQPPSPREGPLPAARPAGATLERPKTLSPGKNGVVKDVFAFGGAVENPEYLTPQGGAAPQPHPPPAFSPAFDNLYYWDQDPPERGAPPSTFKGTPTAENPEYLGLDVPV
Experimental: The purpose of the wtERBB2, ERBB2-A775_G776insYVMA (ERBB2YVMA), wtEGFR biochemical assay was to evaluate the inhibition (% inhibition and IC50 values) of the small molecule inhibitors by using the “HotSpot” radiometric kinase activity assay. HotSpot assays monitor the […] of kinase substrate by the radioactive gamma phosphate of adenosine triphosphate (33P-ATP) during biochemical reactions. HotSpot assays was performed in steps upon completion of the kinase reaction: deposition of a reaction mixture aliquot onto P81 ion exchange paper, extensive washing of the aforementioned P81 paper using phosphoric acid to remove unbound radiolabeled 33P-ATP from the P81 paper, and finally visualization and quantification of the dried P81 paper utilizing a phosphoimager. […] Typical reaction solutions (10 μL final reaction volume) contained the following buffer conditions: 20 mM Hepes (pH 7.5), 10 mM MgCl2, 1 mM EGTA, 0.01% Brij35, 0.02 mg/mL BSA, 0.1 mM Na3VO4, 2 mM DTT, 1% DMSO. The assay was primed by preparing a fresh 0.2 mg/mL solution of pEY (Sigma Cat: P7244) substrate in the reaction buffer and supplementing that solution with […] of MnCl2 as substrate cofactor (Sigma Cat: M9522). The kinase of interest was then added to the solution at the appropriate concentration (30 nM wtERBB2 from, or 20 nM ERBB2YVMA, or 4 nM wtEGFR) and gently mixed prior to delivery of compound in 100% DMSO by acoustic dispensing (Beckman Echo550). Compound, Kinase, and substrate were allowed to incubate for 20 min at room temperature prior to the initiation of the reaction by addition of 33P-ATP (PerkinElmer Cat: NEG602, final conc 10 μM). […] IC50 determinations were made from a plot of kinase activity as a function of inhibitor concentration fit to the 4-parameter IC50 equation with the enzyme concentration held constant using GraphPad Prism (San Diego).

Row | IC50 [1] [nM] | IC50 [2] [nM] | IC50 [3] [nM] | IC50 [4] [nM] | Compound
1 |  |  |  | < 200 | Cc1cc(Nc2ncnn3ccc([C@H]4CCN(C(=O)/C=C/CN(C)C)C4)c23)ccc1Oc1ccn2ncnc2c1 [Example 100, (R,E)-1-(3-(4-((4-([1,2,4]triazolo[1,5-a]pyridin-7-yloxy)-3-methylphenyl)amino)-pyrrolo[2,1-f]1,2,4-triazin-5-yl)pyrrolidin-1-yl)-4-(dimethylamino)but-2-en-1-one]
2 | < 200 | 1500 to 5000 | < 200 | < 200 | Cc1cc(Nc2ncnn3ccc(C4CCCN(C(=O)/C=C/CN(C)C)CC4)c23)ccc1Oc1ccn2ncnc2c1 (stereo not drawn) [Example 93, (E)-1-(4-(4-((4-([1,2,4]triazolo[1,5-a]pyridin-7-yloxy)-3-methylphenyl)amino)pyrrolo[2,1-f][1,2,4]triazin-5-yl)azepan-1-yl)-4-(dimethylamino)but-2-en-1-one]
3 |  |  |  | < 200 | Cc1cc(Nc2ncnn3ccc([C@@H]4CCCN(C(=O)/C=C/CN(C)C)C4)c23)ccc1Oc1ccn2ncnc2c1 (single isomer, unassigned) [Example 107]
4 | < 200 | 1500 to 5000 | < 200 | < 200 | C=CC(=O)N1CCC(c2ccn3ncnc(Nc4ccc(Oc5ccn6ncnc6c5)c(C)c4)c23)C1 (stereo not drawn) [Example 11, 1-(3-(4-((4-([1,2,4]triazolo[1,5-a]pyridin-7-yloxy)-3-methylphenyl)amino)pyrrolo[2,1-f][1,2,4]triazin-5-yl)pyrrolidin-1-yl)prop-2-en-1-one]
5 |  |  |  | < 200 | Cc1cc(Nc2ncnn3ccc([C@H]4CCCN(C(=O)/C=C/CN(C)C)CC4)c23)ccc1Oc1ccn2ncnc2c1 [Example 110, (S,E)-1-(4-(4-((4-([1,2,4]triazolo[1,5-a]pyridin-7-yloxy)-3-methylphenyl)amino)pyrrolo[2,1-f][1,2,4]triazin-5-yl)azepan-1-yl)-4-(dimethylamino)but-2-en-1-one]
6 | 500 to 1500 | 1500 to 5000 | 1500 to 5000 |  | C=CC(=O)N1C[C@H]2C[C@@H]1C[C@H]2c1ccn2ncnc(Nc3ccc(Oc4ccn5ncnc5c4)c(C)c3)c12 (relative stereo) [Example 104, Rel-1-[(1S,4S,5R)-5-{4-[(3-methyl-4-{[1,2,4]triazolo[1,5-a]pyridin-7-yloxy}phenyl)amino]pyrrolo[2,1-f][1,2,4]triazin-5-yl}]-2-azabicyclo[2.2.1]heptan-2-yl]prop-2-en-1-one]
7 | < 200 | 1500 to 5000 | < 200 |  | Cc1cc(Nc2ncnn3ccc(C4CCCN(C(=O)/C=C/CN(C)C)CC4)c23)ccc1Oc1ccn2ncnc2c1 (single isomer, unassigned) [Examples 109 and 110, first eluting isomer, (E)-1-(4-(4-((4-([1,2,4]triazolo[1,5-a]pyridin-7-yloxy)-3-methylphenyl)amino)pyrrolo[2,1-f][1,2,4]triazin-5-yl)azepan-1-yl)-4-(dimethylamino)but-2-en-1-one]
8 |  |  |  | < 200 | Cc1cc(Nc2ncnn3ccc([C@H]4CCCN(C(=O)/C=C/CN(C)C)C4)c23)ccc1Oc1ccn2ncnc2c1 [Example 108, (R,E)-1-(3-(4-((4-([1,2,4]triazolo[1,5-a]pyridin-7-yloxy)-3-methylphenyl)amino)-pyrrolo[2,1-f][1,2,4]-triazin-5-yl)piperidin-1-yl)-4-(dimethylamino)but-2-en-1-one]

Continued, compound first:

Row | Compound | IC50 [1] [nM] | IC50 [2] [nM] | IC50 [3] [nM] | IC50 [4] [nM]
9 | C=C(F)C(=O)NC1CN(c2ccn3ncnc(Nc4ccc(Oc5ccn6ncnc6c5)c(C)c4)c23)C1 [Example 18, N-(1-(4-((4-([1,2,4]triazolo[1,5-a]pyridin-7-yloxy)-3-methylphenyl)amino)pyrrolo[2,1-f][1,2,4]triazin-5-yl)azetidin-3-yl)-2-fluoroacrylamide] | 200 to 500 | 1500 to 5000 | 500 to 1500 | < 200
10 | Cc1cc(Nc2ncnn3ccc(C(=O)NCCCN(C)C)c23)ccc1Oc1ccn2ncnc2c1 [Example 178, 4-((4-([1,2,4]triazolo[1,5-a]pyridin-7-yloxy)-3-methylphenyl)amino)-N-(3-(dimethylamino)-propyl)pyrrolo[2,1-f][1,2,4]triazine-5-carboxamide] | 200 to 500 | > 5000 | 1500 to 5000 | < 200
11 | C=CC(=O)NCCn1cc(-c2ccn3ncnc(Nc4ccc(Oc5ccn6ncnc6c5)c(C)c4)c23)cn1 [Example 13, N-(2-(4-(4-((4-([1,2,4]triazolo[1,5-a]pyridin-7-yloxy)-3-methylphenyl)amino)pyrrolo[2,1-f][1,2,4]triazin-5-yl)-1H-pyrazol-1-yl)ethyl)acrylamide] | < 200 | 1500 to 5000 | 200 to 500 | < 200
12 | Cc1cc(Nc2ccn3ncnc(C4CC5CCC(C4)N5C(=O)/C=C/CN(C)C)c23)ccc1Oc1ccn2cnnc2c1 (stereo not drawn) [Example 33, (E)-1-(3-(5-((4-([1,2,4]triazolo[4,3-a]pyridin-7-yloxy)-3-methylphenyl)amino)pyrrolo[2,1-f][1,2,4]triazin-4-yl)-8-azabicyclo[3.2.1]octan-8-yl)-4-(dimethylamino)but-2-en-1-one acetate] | < 200 | 1500 to 5000 | 200 to 500 | 
13 | Cc1cc(Nc2ncnn3ccc(N4CCN(C(=O)/C=C/CN(C)C)CC4=O)c23)ccc1Oc1ccn2ncnc2c1 [Example 54, (E)-1-(4-((4-([1,2,4]triazolo[1,5-a]pyridin-7-yloxy)-3-methylphenyl)amino)pyrrolo[2,1-f][1,2,4]triazin-5-yl)-4-(4-(dimethylamino)but-2-enoyl)piperazin-2-one] | 500 to 1500 | 1500 to 5000 | 1500 to 5000 | 
14 | Cc1cc(Nc2ncnn3ccc(C4CCN(C(=O)/C=C/CN(C)C)CC4(F)F)c23)ccc1Oc1ccn2ncnc2c1 (stereo not drawn) [Example 176, (E)-1-(4-(4-((4-([1,2,4]triazolo[1,5-a]pyridin-7-yloxy)-3-methylphenyl)amino)pyrrolo[2,1-f][1,2,4]triazin-5-yl)-3,3-difluoropiperidin-1-yl)-4-(dimethylamino)but-2-en-1-one] | < 200 | 1500 to 5000 | < 200 | 
15 | C=CC(=O)N1CCN(c2ccn3ncnc(Nc4ccc(Oc5ccc6c(c5)ncn6C)c(C)c4)c23)CC1 [Example 121, 1-(4-(4-((3-methyl-4-((1-methyl-1H-benzo[d]imidazol-5-yl)oxy)phenyl)amino)pyrrolo[2,1-f][1,2,4]triazin-5-yl)piperazin-1-yl)prop-2-en-1-one] | < 200 | 500 to 1500 | < 200 | 
16 | Cc1cc(Nc2ncnn3ccc(C4CCN(C(=O)/C=C/CN5CCOCC5)CC4)c23)ccc1Oc1ccn2ncnc2c1 [Example 56, (E)-1-(4-(4-((4-([1,2,4]triazolo[1,5-a]pyridin-7-yloxy)-3-methylphenyl)amino)pyrrolo[2,1-f][1,2,4]triazin-5-yl)piperidin-1-yl)-4-morpholinobut-2-en-1-one] | < 200 | 1500 to 5000 | < 200 | 
17 | CO[C@H]1CN(C/C=C/C(=O)N2CCC(c3ccn4ncnc(Nc5ccc(Oc6ccn7ncnc7c6)c(C)c5)c34)CC2)C[C@H]1OC [Example 169, (E)-1-(4-(4-((4-([1,2,4]triazolo[1,5-a]pyridin-7-yloxy)-3-methylphenyl)amino)pyrrolo[2,1-f][1,2,4]triazin-5-yl)piperidin-1-yl)-4-((3R,4S)-3,4-dimethoxypyrrolidin-1-yl)but-2-en-1-one] | < 200 | 1500 to 5000 | < 200 | 
18 | Cc1cc(Nc2ncnn3ccc(C4CCN(C(=O)/C=C/C5CCCN5C)CC4)c23)ccc1Oc1ccn2ncnc2c1 (stereo not drawn) [Example 65, (E)-1-(4-(4-((4-([1,2,4]triazolo[1,5-a]pyridin-7-yloxy)-3-methylphenyl)amino)pyrrolo[2,1-f][1,2,4]triazin-5-yl)piperidin-1-yl)-3-(1-methylpyrrolidin-2-yl)prop-2-en-1-one] | < 200 | 1500 to 5000 | < 200 | 
19 | C=CC(=O)N1C2CCC1CN(c1ccn3ncnc(Nc4ccc(Oc5ccn6ncnc6c5)c(C)c4)c13)C2 [Example 46, 1-(3-(4-((4-([1,2,4]triazolo[1,5-a]pyridin-7-yloxy)-3-methylphenyl)amino)pyrrolo[2,1-f][1,2,4]triazin-5-yl)-3,8-diazabicyclo[3.2.1]octan-8-yl)prop-2-en-1-one] | < 200 | 200 to 500 | < 200 | 
